Test results: ChEMBL document CHEMBL3507680, “University of Dundee, Gates Library screen for HepG2 cell viability”

Assay: Human HepG2 cell viability assay in 384 well format
Assay type: toxicity, cell-based
Set-up: dose 125 nL, time 70.5 hour; cytotoxicity at 70.5 h: concentration not given beside the values
Conditions: HepG2 cells, read-out: Inhibition

Compound	cytotoxicity at 70.5 h [%]
CCc1n[nH]c(C2CN(C(=O)CCn3ccccc3=O)CCO2)n1 (configuration not stated)	-2.35
CN1CCCN(C(=O)NCCNc2cnccn2)CC1	-3.22
COc1ccccc1CCNC(=O)N1CCC(n2cncn2)CC1	-7.07
CC(=O)N1CCCN(C(=O)NCCNc2cnccn2)CC1	-2.47
Cc1nc(C)n(CC2CCCN(CCCOc3ccc(F)cc3)C2)n1 (configuration not stated)	-2.75
O=C(NCCc1ccc(F)cc1)NCC(O)c1cccc(F)c1 (configuration not stated)	23.3
COCCc1noc(CN2CCCC2Cn2nc(C)nc2C)n1 (configuration not stated)	44.8
CCC1CN(CC(=O)N2CCCC2)CCN1CCOC (configuration not stated)	-10.3
Cc1ccc(N2CCCC(NCc3sccc3C)C2)nn1 (configuration not stated)	-7.95
Cc1nc(C)n(CC2CN(Cc3nc4ccccc4s3)CCO2)n1 (configuration not stated)	18.9
CCC1CN(CC(=O)N2CCN(C(C)=O)CC2)CCN1CCOC (configuration not stated)	-7.53
CC(C)C(=O)NC1CCCN(C(=O)c2cc3ccccc3cc2O)C1 (configuration not stated)	-4.18
O=C(NCc1ccccc1)NCC(O)c1cccc(F)c1 (configuration not stated)	-6.42
CC(C)C(=O)NC1CCCN(C(=O)c2ccc(O)c(Cl)c2)C1 (configuration not stated)	-9.92
CCN(Cc1c(F)cccc1F)Cn1nc(C)c2c(C)onc2c1=O	2.01
Cc1cc(C)n(CC2CN(Cc3nc4ccccc4s3)CCO2)n1 (configuration not stated)	-5.7
CCOc1cccc2c1OCC(C(=O)NS(=O)(=O)c1cncc(Br)c1)=C2	2.74
COc1ccc(CC(=O)N2CCC(Nc3ccc(C)nn3)CC2)cc1	-3.12
Cc1ccc(N(C)S(=O)(=O)c2cc(C(=O)O)cs2)cc1	4.32
O=C(c1cnc(-c2ccccn2)s1)N1CCCC1Cn1cccn1 (configuration not stated)	-8.6
O=C(c1cnc(-c2ncccn2)s1)N1CCCC1Cn1cccn1 (configuration not stated)	-2.29
CC(C)Oc1ccc(C(=O)NCc2ccc3c(c2)CCCN3C)cn1	-2.36
CCOc1cccc2c1OCC(C(=O)NS(=O)(=O)c1ccc(Cl)s1)=C2	-7.24
CC(O)CN1CCN(C(=O)c2ccc(CN(C)C)cc2)CC1 (configuration not stated)	-0.592

Compound	cytotoxicity at 70.5 h [%]
CN(Cc1noc(C2CC2)n1)C1CCN(CCn2cc(C#N)cn2)C1 (configuration not stated)	22.1
Cc1nc(C2CCCN2C(=O)CCOCc2ccccc2)no1 (configuration not stated)	-8.94
Cc1cnn(C2CCCN(C(=O)c3cccc4c3OCO4)C2)c1 (configuration not stated)	-10.4
COCCOc1ncccc1C(=O)N1CCCC1Cn1cc(C)cn1 (configuration not stated)	-12
CC(C)c1nc(CN(C)C2CCN(CCn3cc(C#N)cn3)C2)no1 (configuration not stated)	-14.7
Cc1nccn1C1CCCN(C(=O)c2cccc3c2OCO3)C1 (configuration not stated)	-9.12
Cc1nc(C)n(CC2CCCN(c3ncnc4ccccc34)C2)n1 (configuration not stated)	-6.84
Cc1cnn(CC2CCCCN2C(=O)c2ccccc2-n2cccn2)c1 (configuration not stated)	-17.3
Cc1cc(C)n(CC2CCCN2C(=O)c2cccnc2N(C)C)n1 (configuration not stated)	-8.62
CCc1nccn1C1CCCN(C(=O)c2cccc3c2OCO3)C1 (configuration not stated)	-16
O=C(c1ccccc1OC1CCCC1)N1CCCC(n2cncn2)C1 (configuration not stated)	-9.06
Cc1nn(C)c(Cl)c1C1CCCN1C(=O)c1cnn(C)c1C1CC1 (configuration not stated)	-14.5
CN(C)c1ccc(CNC(=O)NCCc2cccs2)cn1	-12.3
CN(C)c1ccc(CNC(=O)NCCc2ccccn2)cn1	-12.8
CCn1cnnc1CNC(=O)N(C)Cc1ccc2c(c1)OCO2	-10.2
COCCN(Cc1nc2c(cnn2C)c(=O)[nH]1)C(C)c1ccccc1 (configuration not stated)	-2.95
O=C(c1cccc2c1OCCO2)N1CCCC(n2cccn2)C1 (configuration not stated)	-8.22
CCCOc1cccc(C(=O)N2CCCC(n3cncn3)C2)c1 (configuration not stated)	-13.7
O=C(c1cnc(-c2ccccn2)s1)N1CCCC(n2cccn2)C1 (configuration not stated)	10.2
c1nc(N2CCCC(Cn3cncn3)C2)c2sccc2n1 (configuration not stated)	-2.8
Cc1nc(C)n(CC2CCCCN2c2ncnc3ccsc23)n1 (configuration not stated)	-11.9
Cc1cnn(CC2CCCCN2C(=O)c2cccnc2N(C)C)c1 (configuration not stated)	9.64
Cc1nccn1CCCC(=O)N1CCC(N(C)c2cccnn2)CC1	-7.52
Cc1nn(C)c(Cl)c1C1CCCN1C(=O)c1csnn1 (configuration not stated)	-4.32

Compound	cytotoxicity at 70.5 h [%]
Cc1nn(C)c(Cl)c1C1CCCN1C(=O)c1cccn1C (configuration not stated)	-10.5
Cc1ncsc1C(=O)N1CCCC1c1c(C)nn(C)c1Cl (configuration not stated)	-13.8
N#Cc1cc(NS(=O)(=O)c2cc(C(=O)O)cc(Cl)c2Cl)ccc1F	0.738
Cc1c(F)cc(C(=O)O)cc1S(=O)(=O)Nc1ccc(F)c(C#N)c1	-9.42
Cc1nn(C)c(C)c1C1CCCN1C(=O)c1nccnc1N (configuration not stated)	-8.84
CN(Cc1nnc2n1CCC2)C(=O)c1ccc2c(c1)OCCCO2	18.9
Cc1cc(C)n(CC2CCCN2CC(=O)N(C)Cc2ccc(C)o2)n1 (configuration not stated)	18
Cc1cc(C)n(CC2CCCN2C(=O)c2c(C)noc2C)n1 (configuration not stated)	18.5
O=C(NCCNc1ncccn1)C1CC(=O)N(C2CCCC2)C1 (configuration not stated)	-6.36
CC(C)CN1CC(C(=O)NCCNc2ncccn2)CC1=O (configuration not stated)	-0.397
O=C(NCCNc1ncccn1)C1CC(=O)N(CC2CC2)C1 (configuration not stated)	16.4
CN(Cc1nnc2n1CCC2)C(=O)CCc1ccc2c(c1)OCO2	-7.61
Cc1ncc2c(n1)CN(Cc1nc3ccccc3o1)CC2	11.4
CCc1cc(C(=O)N2CCC(Nc3ccc(C)nn3)CC2)sc1C	-2.56
Cc1cc(CN2CCCC2c2noc(C)n2)no1 (configuration not stated)	4.25
Cn1ccnc1CN1CCCC1c1noc(C2CC2)n1 (configuration not stated)	1.39
OC(CN1CCOCC1)CN1CCc2c(ncn2C2CC2)C1 (configuration not stated)	30.4
Cc1cnc(CN(C)C2CCN(Cc3ccccc3C#N)C2)o1 (configuration not stated)	-5.36
CCN1CCN(c2ccc(CNC(=O)c3ccc(Cl)o3)cn2)CC1	3.11
Cc1noc(C)c1C(=O)NCc1ccc(N2CCOC(C)C2)nc1 (configuration not stated)	4.56
Cc1ccccc1CC(=O)N(C)C1CCN(c2ccccn2)CC1	25.2
Cc1nnc(NC(=O)CN2CCCC(Cn3cncn3)C2)s1 (configuration not stated)	-1.69
CCNc1cc2c(nn1)CCN(C(=O)c1cc3nc(C)ccc3o1)C2	22.7
CCc1nccn1C1CCCN(C(=O)Cc2ccc(OC)c(F)c2)C1 (configuration not stated)	4.08

Compound	cytotoxicity at 70.5 h [%]
CCc1nc(C2CCCN2C(=O)C2=COCC2)no1 (configuration not stated)	6.98
CN(CC(=O)Nc1ccc(Br)cn1)C(=O)Cc1ccc(O)cc1	-1.46
CCc1noc(C(C)N2CCOCC2)n1 (configuration not stated)	3.88
CCc1noc(C(C)N2CCC(N3CCCC3)CC2)n1 (configuration not stated)	24.3
Cc1cc(C)n2cc(CN3CCCC3Cn3nc(C)nc3C)nc2n1 (configuration not stated)	-6.16
CCc1nc(C2CCCN2C(=O)c2ccc3c(c2)nnn3CC)no1 (configuration not stated)	-3.25
CCc1nc(C2CCCN2C(=O)c2ccc3c(c2)nc(C)n3C)no1 (configuration not stated)	-8.32
Cc1cnn(C2CCCN(C(=O)Cc3ccc(-n4cccn4)cc3)C2)c1 (configuration not stated)	-3.4
CC(C)c1nc(CN2CCCN(Cc3nnc(C4CC4)o3)CC2)no1	1.11
Cc1nc(C)n(CC2CCCN2Cc2nc(N)c3ccccc3n2)n1 (configuration not stated)	-4.33
CC(O)CNC(=O)NCc1cccnc1OC1CCCC1 (configuration not stated)	-6.8
Cc1cc(NC(=O)CCN(CC2CCOC2)C2CC2)no1 (configuration not stated)	-9.35
Cc1cc(CN(C)C(=O)c2ccnc(N(C)C)c2)no1	-7.52
Cc1cc(C(=O)NCc2ccc(N3CCCC(C(N)=O)C3)cc2)no1 (configuration not stated)	-12.6
COCC(C)NC(=O)c1cc(Br)c2c(c1)OCCO2 (configuration not stated)	-10.9
Cc1cnn(CC2CN(CC(=O)N3CCc4ccccc43)CCO2)c1 (configuration not stated)	-10.9
Cc1nc(C)n(CC2CCCN2Cc2nc3ccccc3n2C)n1 (configuration not stated)	-7.27
Cc1nc(C)n(CC2CCCN2Cc2nc3ccccc3nc2C)n1 (configuration not stated)	3.65
Cc1cc(C)n(C2CCCN(C(=O)c3c(C)c(C)n[nH]c3=O)C2)n1 (configuration not stated)	-8.79
OC(CNCCn1cccn1)c1ccc2c(c1)OCCO2 (configuration not stated)	-2.85
CC(C)c1nc(C2CCCN2CC(=O)Nc2nncs2)no1 (configuration not stated)	-1.18
Cn1c(CN2CCCC2c2noc(C3CC3)n2)cc(=O)n(C)c1=O (configuration not stated)	-9.32
CCCc1noc(CN2CCCC2c2c(C)nn(C)c2OC)n1 (configuration not stated)	-7.09
CCn1cnnc1CNC(=O)N1CCOCC1	-13.2

Compound	cytotoxicity at 70.5 h [%]
COCCc1noc(CN2CCCC2c2c(C)nn(C)c2C)n1 (configuration not stated)	-8.48
COc1ccc(F)cc1CN1CCCC(c2cc(C(N)=O)[nH]n2)C1 (configuration not stated)	-10.6
Cc1cnn(CC2CN(CC(=O)NCc3ccccn3)CCO2)c1 (configuration not stated)	14.8
Cc1cccc(-c2noc(CN3CCc4nn(C)c(=O)cc4C3)n2)c1	8.08
O=C(c1cc(Cl)c2c(c1)OCCO2)N1CCCC(n2cncn2)C1 (configuration not stated)	-10.2
Cc1nc(C)n(CC2CN(CCOc3ccccc3F)CCO2)n1 (configuration not stated)	-10.8
CC(C)c1nc(C2CCCN(Cc3nnc(C4CC4)o3)C2)no1 (configuration not stated)	-8.01
CNc1snc(C)c1C(=O)N1CCCC(n2ccnc2C(C)C)C1 (configuration not stated)	-5.8
Cc1cnn(CC2CCCCN2C(=O)CN(C)C2CC2)c1 (configuration not stated)	16.1
Cc1nc(C2CCCN(C(=O)c3cccc4c3OCO4)C2)no1 (configuration not stated)	-4.51
COc1ccccc1C(=O)NC(CC(=O)O)c1cccs1 (configuration not stated)	-3.76
Cc1cc(NC(=O)NCc2ccccc2OC(F)F)n(C)n1	-5.54
CC(CCc1ccccc1)NC(=O)Nc1cnn(CC(N)=O)c1 (configuration not stated)	-2.53
COc1ccc(COCC(O)CNC(=O)c2cccnc2)cc1 (configuration not stated)	32.7
CC(Cc1ccco1)NC(=O)Nc1cnn(CC(N)=O)c1 (configuration not stated)	-1.8
Cc1cnn(CC(C)NCc2ccc(S(C)(=O)=O)cc2)c1 (configuration not stated)	-1.78
c1ccc(-n2nnnc2CN2CCCC(Cn3cncn3)C2)cc1 (configuration not stated)	-0.367
O=C(NC1CCN(c2snc3ccccc23)CC1)C1CCC1	14.4
c1cnnc(N2CCCC2CNc2ncnc3ccccc23)c1 (configuration not stated)	11.3
CCN1CCC(CNCc2c[nH]nc2C(C)(C)C)C1 (configuration not stated)	-2.99
Cc1nn(C)c(N(C)C)c1CNCc1cccnc1-n1cncn1	-5.08
